# Test results as given in patent US6812365B2, “Disulfone reagents and methods of preparing and using same” (The Arizona Disease Control Research Commission, priority 1999, dated 2004).
# Molecular target: T1, HIV integrase (HIV-IN) (Human immunodeficiency virus type 1 group M subtype B, UniProt P04585)
# T1 construct: employs a purified recombinant integrase
# Assay: in vitro HIV integrase inhibition assay (3′-processing and DNA strand transfer, purified recombinant integrase, 21-mer duplex oligonucleotide substrate)
# Format: biochemical
# Settings: cell-free assay, 50% reduction in enzymatic activity; read-out: IC50 values against HIV-IN
# Text: Generally, a particular compound's HIV integrase inhibitory potency can be measured by observing the effects of that compound on the integrase enzyme's catalytic activity. HIV integrase has two catalytic functions: (1) 3′-processing, which removes a dinucleotide unit from the 3′-ends of viral DNA; and (2) DNA strand transfer, which […]. These two catalytic steps can be measured in an in vitro assay which employs a purified recombinant integrase and a 21-mer duplex oligonucleotide substrate corresponding to the U5 region of the HIV long terminal repeat (LTR) sequence. This assay permits simultaneous measurement of inhibition constants for both 3′-processing and DNA strand transfer. Inhibitory concentrations (i.e., IC50 values) are determined based on an observed 50% reduction in enzymatic activity in cell-free assays. (See e.g., Zhao H., Neamati N., Mazumder A., Sunder S., Pommier Y., ad Burke T. “Arylamide Inhibitors of HIV-1 Integrase” J. Med. Chem. 1997, 40, 1186-1194).
# Compound 76 (an acetylated derivative of Compound 80), Compound 78 (a symmetrical, hydroxylated derivative of Compound 80), and Compound 82 (an acetylated and methylated derivative of Compound 80) have been prepared in accordance with the various aspects of the present invention and have been tested in accordance with the above-described known method of testing HIV-IN inhibition.
row,SMILES,IC50
1,CC(=O)Oc1ccc(C=CS(=O)(=O)CS(=O)(=O)C=Cc2ccc(OC(C)=O)c(OC(C)=O)c2)cc1OC(C)=O [Compound 76],73 to 77 µM
2,O=S(=O)(C=Cc1ccc(O)c(O)c1)CS(=O)(=O)C=Cc1ccc(O)c(O)c1 [Compound 78],4 to 6 µM
3,COc1cc(C=CS(=O)(=O)CS(=O)(=O)C=Cc2cc(OC)c(OC(C)=O)c(OC(C)=O)c2)cc(OC(C)=O)c1OC(C)=O [Compound 82],4 µM
